Experimental data taken from publication PMC3274752 (Cancer discovery, 2011).

Experiments:
[1] = tested on: Ba/F3 cells expressing DDR2 mutations; experiment: Four-day proliferation of IL-3-independent Ba/F3 cells expressing DDR2 mutants; type: cell-based; conditions: for killing / proliferation of DDR2-transformed Ba/F3 cells: IL-3-independent Ba/F3 cells expressing DDR2 mutations, single agent
[2] = tested on: SCC lines harboring DDR2 mutations; experiment: Proliferation and viability of SCC lines harboring DDR2 mutations; type: cell-based; conditions: for inhibition of proliferation: SCC lines harboring DDR2 mutations
[3] = tested on: Ba/F3 cells expressing DDR2 L63V; type: cell-based; conditions: Ba/F3 DDR2 L63V grown in 50 nM nilotinib
[4] = tested on: NCI-H1703 xenograft tumors; experiment: Xenograft of NCI-H1703 in athymic nude mice; type: in vivo; conditions: 50 mg/kg oral gavage, two weeks
[5] = tested on: NCI-H2286 xenograft tumors; experiment: Xenograft of NCI-H2286 in athymic nude mice; type: in vivo; conditions: 50 mg/kg oral gavage, two weeks
A549 cell line = experiment: Cell-Titer-Glo proliferation, six days, A549; type: cell-based; conditions: Homo sapiens, A549, read-out: calculated IC50, proliferation
[6] = tested on: DDR2-mutant HCC-366 cells; conditions: cited from earlier work
[7] = tested on: Ba/F3 cells, vector control grown in the presence of IL-3; experiment: Four-day proliferation of control Ba/F3 cells grown in IL-3; type: cell-based; conditions: Mus musculus, BaF3, 96 h, read-out: mean calculated IC50 for the control
NCI-H1703 SCC cell line = conditions: NCI-H1703, PDGFRA amplification, positive control
[8] = cited from earlier work
[9] = tested on: NIH-3T3 cells expressing DDR2 L63V; experiment: Soft agar colony formation, NIH-3T3 expressing DDR2 L63V; type: cell-based; conditions: single application at the time of plating

Cc1ccc(C(=O)Nc2ccc(CN3CCN(C)CC3)c(C(F)(F)F)c2)cc1C#Cc1cnc2cccnn12 [AP24534]
killing / proliferation of DDR2-transformed Ba/F3 cells [1]: effective in killing
inhibition of proliferation [2]: inhibited the proliferation of SCC lines harboring DDR2 mutations

CN1CCN(CCOc2cc(OC3CCOCC3)c3c(Nc4c(Cl)ccc5c4OCO5)ncnc3c2)CC1 [AZD0530]
proliferation on addition of AZD0530 to 50 nM nilotinib [3]: marked reduction in proliferation
killing / proliferation of DDR2-transformed Ba/F3 cells [1]: modest effect on the proliferation

Cc1nc(Nc2ncc(C(=O)Nc3c(C)cccc3Cl)s2)cc(N2CCN(CCO)CC2)n1 [dasatinib]
tumor size [4]: decrease in tumor size
tumor size [5]: decrease in tumor size
IC50 (A549 cell line): 7.4 µM
rank of sensitivity among 83 NSCLC cell lines ([6]; HCC-366): most sensitive squamous cell lung cancer line to dasatinib
IC50 [7]: 30 µM
sensitivity in proliferation assay (NCI-H1703 SCC cell line): sensitive to both drugs
IC50 ([1]; Mus musculus, BaF3, 96 h, read-out: mean calculated IC50 for the mutants): 0.68 µM
cellular annexin V staining ([2]; 48 hours after addition of drug, data not shown): increase in cellular annexin V staining
cell death versus cell cycle arrest by trypan blue exclusion ([2]; DDR2 mutant cell lines): cell death as opposed to cell cycle arrest
toxicity in patients [8]: myelosuppression and the development of pleural and pericardial effusions
colony formation in soft agar [9]: Colony formation could be inhibited

C#Cc1cccc(Nc2ncnc3cc(OCCOC)c(OCCOC)cc23)c1 [erlotinib]
GI50 ([6]; DDR2 mutant HCC-366 cell line): 0.99 µM
sensitivity relative to dasatinib ([2]; HCC-366 and NCI-H2286, initial experiments, data not shown): at least ten-fold less than dasatinib

Cc1cn(-c2cc(NC(=O)c3ccc(C)c(Nc4nccc(-c5cccnc5)n4)c3)cc(C(F)(F)F)c2)cn1 [nilotinib]
effect on proliferation at 50 nM ([1]; 50 nM, wild-type Ba/F3 cells or Ba/F3 cells expressing DDR2 mutations): little effect on proliferation
killing / proliferation of DDR2-transformed Ba/F3 cells [1]: modest activity
inhibition of proliferation [2]: inhibited the proliferation of SCC lines harboring DDR2 mutations
